Reference: US20240174723A1, “STAPLED ANTIMICROBIAL PEPTIDES (STAMPS) AND USES THEREOF” (Lytica Therapeutics, Inc., priority 2021, published 2024)
In brackets after ≈: the same amount, converted by molar mass. Positions of bridges follow the written chain, without caps; N, C: chain ends. Non-standard residues stand in square brackets, D forms with d. Residues, ends and D or L forms follow the SMILES beside them. S5 = C=CCCC[C@](C)(N)C(=O)O

Tests used:
in vitro [1] = assay type: cell-based; settings: human
Description: Cell culture: RPTEC were maintained in MEM media supplemented with growth factors. HEPG2 cell line was maintained in Eagle's Minimum Essential Medium (EMEM) supplemented with fetal bovine serum to a final concentration of 10%.
90 minute cytotoxicity assay: Cells were plated in a 96-well format, and after overnight incubation, media was replaced with fresh media. Serial dilutions of StAMPs from a 5 mg/mL water stock, or vehicle, were added to the cells in a final volume of 100 μl. After incubating at 37° C. for 90 min, 50 μl of cell culture media was transferred to a clear 96-well plate, incubated with 50 μl of lactate dehydrogenase (LDH) assay reagent for 10 min, and absorbance measured at 490 nm on a microplate reader.
Renal toxicity was measured after 90 minutes of incubation, while liver toxicity was measured after 48 hours of incubation with StAMPs. N/A=not tested. The following apply to all peptides (i.e., StAMPs) listed in Tables A-C: Crosslinks (X^1—X^2 and X^3—X^4): (alk); N-terminus: —NH2; C-terminus: amidated with —NH2; counterion: Cl^−. The following apply to all peptides (i.e., StAMPs) listed in Table D: Crosslinks (X^1—X^2 and X^3—X^4): (alk); N-terminus: —NH2; C-terminus: as shown in table; counterion: Cl^−.
StAMP Micelle Formulation: DSPE-MPEG(2000) was suspended in buffered saline at 50-100 mg/mL overnight. StAMP stock solutions at 5-20 mg/mL in buffered saline were prepared and equal volumes of micelle and StAMP stock solution were mixed at the desired StAMP:Lipid ratio. Suspensions were allowed to sit for 5-10 minutes at room temperature before being used in in vitro and in vivo assays.
In Table E, the StAMP is StAMP 4 (Table A) and “Lipid”=DSPE-MPEG(2000).

K. pneumoniae = assay type: cell-based, Klebsiella pneumoniae
Procedure, shortened: (§1)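 Visible-growth endpoint after 20-24 h at 37 °C defines the MIC. Test organisms, pre-grown to log phase, were exposed at 5×10^5 CFU/ml to peptide dilution series in standard or cation-adjusted Mueller-Hinton broth.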

A. baumannii = assay type: cell-based, Acinetobacter baumannii
Procedure, shortened: as §1

S. aureus = assay type: cell-based, Staphylococcus aureus
Procedure, shortened: as §1

E. coli = assay type: cell-based, Escherichia coli
Procedure, shortened: as §1

in vitro [2] = assay type: cell-based; settings: human, Inhibitory Concentration at 50% Cytotoxicity (IC50) Human Liver Cells (HepG2)
Procedure, shortened: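 Cytotoxicity read by CellTiter-Glo luminescence after 48 h at 37 °C exposure to serially diluted StAMPs or vehicle. HepG2 cells were grown in EMEM plus 10% FBS and given 4 h to attach before dosing; peptides came from a 5 mg/mL aqueous stock.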

P. aeruginosa = assay type: cell-based, Pseudomonas aeruginosa
Procedure, shortened: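 MIC taken as lowest peptide concentration with no visible growth after 20-24 h at 37 °C. Peptide serial dilutions from water stocks met P. aeruginosa inoculum (5×10^5 CFU/ml final) in MHB or MHB II, per a CLSI-adapted microbroth protocol.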

SMILES	IC50 at 90 min (in vitro [1]) [µg/mL]	Minimum Inhibitory Concentration (MIC) K. pneumoniae (K. pneumoniae) [µg/mL]	Minimum Inhibitory Concentration (MIC) A. baumannii (A. baumannii) [µg/mL]	Minimum Inhibitory Concentration (MIC) S. aureus (S. aureus) [µg/mL]	Minimum Inhibitory Concentration (MIC) E. coli (E. coli) [µg/mL]	IC50 at 48 hours (in vitro [2]) [µg/mL]	Minimum Inhibitory Concentration (MIC) P. aeruginosa (P. aeruginosa) [µg/mL]
CC(C)C[C@@H]1NC(=O)[C@H](C(C)C)NC(=O)[C@@](C)(NC(=O)[C@H](C)NC(=O)[C@H](CCCCN)NC(=O)CNC(=O)[C@H](Cc2ccccc2)NC(=O)[C@H](CCCCN)NC(=O)[C@H](CCCCN)NC(=O)[C@H](CCCCN)NC(=O)[C@H](CO)NC(=O)[C@H](Cc2c[nH]cn2)NC(=O)[C@]2(C)CCCC=CCCC[C@](C)(NC(=O)CN)C(=O)NCC(=O)N[C@@H](CCCCN)C(=O)N[C@@H](Cc3ccccc3)C(=O)N2)CCCC=CCCC[C@@](C)(C(=O)N[C@@H](C)C(=O)N[C@@H](CCCCN)C(=O)N[C@@H](CCCCN)C(N)=O)NC(=O)[C@H](CCC(=O)O)NC1=O [compound 12] (H-G[S5]GKF[S5]HSKKKFGKA[S5]VLE[S5]AKK-NH2; staple 2-6, 16-20)	~200 (≈ 77.3 µM)	4	2	>64	2	~200 (≈ 77.3 µM)	4
CC(C)[C@@H]1NC(=O)[C@@](C)(NC(=O)[C@H](C)NC(=O)[C@H](CCCCN)NC(=O)CNC(=O)[C@H](Cc2ccccc2)NC(=O)[C@H](CCCCN)NC(=O)[C@H](CCCCN)NC(=O)[C@H](CCCCN)NC(=O)[C@H](CO)NC(=O)[C@H](Cc2c[nH]cn2)NC(=O)[C@]2(C)CCCC=CCCC[C@](C)(NC(=O)CN)C(=O)NCC(=O)N[C@@H](CCCCN)C(=O)N[C@@H](Cc3ccccc3)C(=O)N2)CCCC=CCCC[C@@](C)(C(=O)N[C@@H](C)C(=O)N[C@@H](CCCCN)C(=O)N[C@@H](CCCCN)C(N)=O)NC(=O)[C@H](CCC(=O)O)NC(=O)[C@H](Cc2ccc(O)cc2)NC1=O [compound 13] (H-G[S5]GKF[S5]HSKKKFGKA[S5]VYE[S5]AKK-NH2; staple 2-6, 16-20)	> 200	8	2	>64	3	> 200	4
CC(C)[C@@H]1NC(=O)[C@@](C)(NC(=O)[C@H](C)NC(=O)[C@H](CCCCN)NC(=O)CNC(=O)[C@H](Cc2ccccc2)NC(=O)[C@H](CCCCN)NC(=O)[C@H](CCCCN)NC(=O)[C@H](CCCCN)NC(=O)[C@H](CO)NC(=O)[C@H](Cc2c[nH]cn2)NC(=O)[C@]2(C)CCCC=CCCC[C@](C)(NC(=O)CN)C(=O)NCC(=O)N[C@@H](CCCCN)C(=O)N[C@@H](Cc3ccccc3)C(=O)N2)CCCC=CCCC[C@@](C)(C(=O)N[C@@H](C)C(=O)N[C@@H](CCCCN)C(=O)N[C@@H](CCCCN)C(N)=O)NC(=O)[C@H](CCC(=O)O)NC(=O)[C@H](Cc2ccccc2)NC1=O [compound 14] (H-G[S5]GKF[S5]HSKKKFGKA[S5]VFE[S5]AKK-NH2; staple 2-6, 16-20)	214 (≈ 81.6 µM)	4	2	>64	2	222 (≈ 84.7 µM)	4
CC(C)[C@@H]1NC(=O)[C@@](C)(NC(=O)[C@H](C)NC(=O)[C@H](CCCCN)NC(=O)CNC(=O)[C@H](Cc2ccccc2)NC(=O)[C@H](CCCCN)NC(=O)[C@H](CCCCN)NC(=O)[C@H](CCCCN)NC(=O)[C@H](CO)NC(=O)[C@H](Cc2c[nH]cn2)NC(=O)[C@]2(C)CCCC=CCCC[C@](C)(NC(=O)CN)C(=O)NCC(=O)N[C@@H](CCCCN)C(=O)N[C@@H](Cc3ccccc3)C(=O)N2)CCCC=CCCC[C@@](C)(C(=O)N[C@@H](C)C(=O)N[C@@H](CCCCN)C(=O)N[C@@H](CCCCN)C(N)=O)NC(=O)[C@H](CCC(=O)O)NC(=O)[C@H]([C@@H](C)O)NC1=O [compound 15] (H-G[S5]GKF[S5]HSKKKFGKA[S5]VTE[S5]AKK-NH2; staple 2-6, 16-20)	> 200	16	2	>64	6	> 200	8
CC(C)[C@@H]1NC(=O)[C@@](C)(NC(=O)[C@H](C)NC(=O)[C@H](CCCCN)NC(=O)CNC(=O)[C@H](Cc2ccccc2)NC(=O)[C@H](CCCCN)NC(=O)[C@H](CCCCN)NC(=O)[C@H](CCCCN)NC(=O)[C@H](CO)NC(=O)[C@H](Cc2c[nH]cn2)NC(=O)[C@]2(C)CCCC=CCCC[C@](C)(NC(=O)CN)C(=O)NCC(=O)N[C@@H](CCCCN)C(=O)N[C@@H](Cc3ccccc3)C(=O)N2)CCCC=CCCC[C@@](C)(C(=O)N[C@@H](C)C(=O)N[C@@H](CCCCN)C(=O)N[C@@H](CCCCN)C(N)=O)NC(=O)[C@H](CC(=O)O)NC(=O)CNC1=O [compound 16] (H-G[S5]GKF[S5]HSKKKFGKA[S5]VGD[S5]AKK-NH2; staple 2-6, 16-20)	> 200	>64	4	>64	12	> 200	16
CC(C)[C@@H]1NC(=O)[C@@](C)(NC(=O)[C@H](C)NC(=O)[C@H](CCCCN)NC(=O)CNC(=O)[C@H](Cc2ccccc2)NC(=O)[C@H](CCCCN)NC(=O)[C@H](CCCCN)NC(=O)[C@H](CCCCN)NC(=O)[C@H](CO)NC(=O)[C@H](Cc2c[nH]cn2)NC(=O)[C@]2(C)CCCC=CCCC[C@](C)(NC(=O)CN)C(=O)NCC(=O)N[C@@H](CCCCN)C(=O)N[C@@H](Cc3ccccc3)C(=O)N2)CCCC=CCCC[C@@](C)(C(=O)N[C@@H](C)C(=O)N[C@@H](CCCCN)C(=O)N[C@@H](CCCCN)C(N)=O)NC(=O)[C@H](CCC(N)=O)NC(=O)CNC1=O [compound 17] (H-G[S5]GKF[S5]HSKKKFGKA[S5]VGQ[S5]AKK-NH2; staple 2-6, 16-20)	~180 (≈ 71.1 µM)	32	2	>64	3	> 200	4
CC(C)[C@@H]1NC(=O)[C@@](C)(NC(=O)[C@H](C)NC(=O)[C@H](CCCCN)NC(=O)CNC(=O)[C@H](Cc2ccccc2)NC(=O)[C@H](CCCCN)NC(=O)[C@H](CCCCN)NC(=O)[C@H](CCCCN)NC(=O)[C@H](CO)NC(=O)[C@H](Cc2c[nH]cn2)NC(=O)[C@]2(C)CCCC=CCCC[C@](C)(NC(=O)CN)C(=O)NCC(=O)N[C@@H](CCCCN)C(=O)N[C@@H](Cc3ccccc3)C(=O)N2)CCCC=CCCC[C@@](C)(C(=O)N[C@@H](C)C(=O)N[C@@H](CCCCN)C(=O)N[C@@H](CCCCN)C(N)=O)NC(=O)[C@H](CC(N)=O)NC(=O)CNC1=O [compound 18] (H-G[S5]GKF[S5]HSKKKFGKA[S5]VGN[S5]AKK-NH2; staple 2-6, 16-20)	~200 (≈ 79.5 µM)	64	2	>64	4	> 200	4
